This note sets out measurements from ChEMBL document CHEMBL1131941, “Synthesis and biological evaluation of alpha,alpha-difluorobenzylphosphonic acid derivatives as small molecular inhibitors of protein-tyrosine phosphatase 1B” (Bioorg Med Chem Lett, 1999).

The first experiment addresses T1, Tyrosine-protein phosphatase non-receptor type 1 (Homo sapiens, UniProt P18031).
T1 sequence (P18031 whole entry): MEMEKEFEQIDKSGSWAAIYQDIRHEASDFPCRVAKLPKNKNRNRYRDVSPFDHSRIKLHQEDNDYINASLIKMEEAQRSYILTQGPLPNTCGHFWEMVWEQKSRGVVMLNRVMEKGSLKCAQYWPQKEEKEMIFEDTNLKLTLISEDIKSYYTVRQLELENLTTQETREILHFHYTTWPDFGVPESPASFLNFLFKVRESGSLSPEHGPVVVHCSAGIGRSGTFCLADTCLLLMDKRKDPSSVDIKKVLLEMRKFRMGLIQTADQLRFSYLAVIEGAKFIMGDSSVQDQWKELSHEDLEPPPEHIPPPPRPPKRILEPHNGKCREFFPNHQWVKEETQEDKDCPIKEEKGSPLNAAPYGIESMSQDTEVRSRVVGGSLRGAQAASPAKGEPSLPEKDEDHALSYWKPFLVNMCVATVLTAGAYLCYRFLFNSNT
Briefly: Inhibitory potency for the protein tyrosine phosphatase (PTP 1B)-catalyzed hydrolysis of p-nitrophenol phosphate; No inhibition. The format is functional.
One may read the IC50 as the point on the concentration scale where inhibition reaches its midpoint. Lower therefore signals greater potency. Take `O=P(O)(O)C(F)(F)c1ccccc1`: the IC50 result was “Not Active”.

In the next experiment the target is T1, Tyrosine-protein phosphatase non-receptor type 1. Briefly: Inhibitory potency for the protein tyrosine phosphatase (PTP 1B)-catalyzed hydrolysis of p-nitrophenol phosphate. The format is functional.
Compound `COc1ccc(-c2ccc(C(F)(F)P(=O)(O)O)cc2)cc1` registered an IC50 of 451 µM.

Compound `CS(=O)(=O)N(c1cc(C(F)(F)P(=O)(O)O)ccc1/C=C/c1ccccc1)S(C)(=O)=O` registered an IC50 of 57.9 µM.

Take `O=P(O)(O)C(F)(F)c1ccc(/C=C/c2ccccc2)cc1`: it took 450 µM to reach half-maximal inhibition (IC50).

For the compound `O=P(O)(O)C(F)(F)c1cccc(C#Cc2ccccc2)c1`, the IC50 was 136 µM.

Take `O=P(O)(O)C(F)(F)c1ccc(C#Cc2ccccc2)cc1`: half-maximal inhibition (IC50) was put at 128 µM.

Compound `O=P(O)(O)C(F)(F)c1cccc(/C=C/c2ccccc2)c1` came in with an IC50 of 386 µM.

For the compound `CS(=O)(=O)N(c1cc(C(F)(F)P(=O)(O)O)ccc1C#Cc1ccccc1)S(C)(=O)=O`, the half-maximal inhibitory concentration (IC50) was 88.7 µM.

`C#Cc1cccc(C(F)(F)P(=O)(O)O)c1` came in with an IC50 of 19 µM.

Regarding `CS(=O)(=O)Nc1cc(C(F)(F)P(=O)(O)O)ccc1/C=C/c1ccccc1`, the IC50 amounted to 176 µM.

`O=P(O)(O)C(F)(F)c1ccc(-c2ccccc2)cc1` had an IC50 of 779 µM.

The compound `CS(=O)(=O)Nc1cc(C(F)(F)P(=O)(O)O)ccc1C#Cc1ccccc1` registered an IC50 of 167 µM.

As for `O=P(O)(O)C(F)(F)c1ccc2ccccc2c1`, the IC50 is 718 µM.

For `C#Cc1ccc(C(F)(F)P(=O)(O)O)cc1`, the IC50 worked out at 77.5 µM.
